Experimental findings from ChEMBL document CHEMBL1201862, “PubChem BioAssay data set” (2004) are described below.

Structures are written as SMILES. Calls of active or inactive are those of the source.

In one test the target is Paired box protein Pax-8 (Homo sapiens, UniProt Q06710). In words: PAX8 transcriptional activity inhibition in RMG-I – RMG-I cells, luciferase, cherry-pick, dose response (AID 687027).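 Further: luciferase reporter driven by Pax8 target thyroperoxidase promoter measured by SteadyGlo luminescence.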 The format is functional, cell-based.
Sequence of Paired box protein Pax-8 (Q06710 whole entry): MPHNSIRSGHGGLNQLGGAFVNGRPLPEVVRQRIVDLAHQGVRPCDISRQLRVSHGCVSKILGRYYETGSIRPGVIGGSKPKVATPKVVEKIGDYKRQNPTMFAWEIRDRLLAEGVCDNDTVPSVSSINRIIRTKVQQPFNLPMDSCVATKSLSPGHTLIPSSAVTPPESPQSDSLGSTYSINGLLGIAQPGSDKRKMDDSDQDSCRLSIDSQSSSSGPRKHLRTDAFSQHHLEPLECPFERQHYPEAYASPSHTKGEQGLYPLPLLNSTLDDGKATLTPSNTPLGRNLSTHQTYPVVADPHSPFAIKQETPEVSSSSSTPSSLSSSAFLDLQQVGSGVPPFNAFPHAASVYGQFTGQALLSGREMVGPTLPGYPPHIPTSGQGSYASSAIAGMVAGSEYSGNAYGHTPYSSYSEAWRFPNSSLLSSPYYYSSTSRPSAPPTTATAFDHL
Another test deals with Mu-type opioid receptor (Homo sapiens, UniProt P35372). The test is described as follows: HTS Image-Based Screen for Agonists of the MOR Receptor. [Related pubchem assays (depositor defined):AID1777, AID1785, AID1786, AID2133]. The format is functional.
Sequence of Mu-type opioid receptor (P35372 whole entry): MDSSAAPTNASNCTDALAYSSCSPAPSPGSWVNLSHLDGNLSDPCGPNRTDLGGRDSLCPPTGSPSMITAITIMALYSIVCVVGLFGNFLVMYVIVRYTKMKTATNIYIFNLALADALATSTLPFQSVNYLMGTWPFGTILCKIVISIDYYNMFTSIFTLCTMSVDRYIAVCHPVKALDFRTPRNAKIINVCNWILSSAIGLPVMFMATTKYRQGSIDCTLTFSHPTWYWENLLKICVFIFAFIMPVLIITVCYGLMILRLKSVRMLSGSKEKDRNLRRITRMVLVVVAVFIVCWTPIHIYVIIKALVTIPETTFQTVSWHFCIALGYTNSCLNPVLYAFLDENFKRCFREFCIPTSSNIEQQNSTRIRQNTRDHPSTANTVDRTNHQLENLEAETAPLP
For test [1], the target named is T1, Kappa-type opioid receptor (Homo sapiens, UniProt P41145). The class given is functional.
T1 sequence (P41145 whole entry): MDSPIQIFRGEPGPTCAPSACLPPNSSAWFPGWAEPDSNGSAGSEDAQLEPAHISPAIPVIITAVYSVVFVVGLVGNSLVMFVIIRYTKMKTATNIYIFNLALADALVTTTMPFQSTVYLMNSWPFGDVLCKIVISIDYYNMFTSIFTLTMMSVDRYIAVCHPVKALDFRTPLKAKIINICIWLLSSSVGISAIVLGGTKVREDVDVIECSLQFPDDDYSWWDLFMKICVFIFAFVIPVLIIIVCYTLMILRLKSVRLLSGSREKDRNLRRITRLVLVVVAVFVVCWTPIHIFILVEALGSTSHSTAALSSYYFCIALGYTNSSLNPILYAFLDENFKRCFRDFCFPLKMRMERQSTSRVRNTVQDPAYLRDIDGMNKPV
The target in test [2] is T2, Delta-type opioid receptor (Homo sapiens, UniProt P41143). The test is described as follows: HTS Image-Based Screen for Antagonists of the DOR Receptor. [Related pubchem assays (depositor defined):AID1777, AID1785, AID1786, AID2133]. The class given is functional.
T2 sequence (P41143 whole entry): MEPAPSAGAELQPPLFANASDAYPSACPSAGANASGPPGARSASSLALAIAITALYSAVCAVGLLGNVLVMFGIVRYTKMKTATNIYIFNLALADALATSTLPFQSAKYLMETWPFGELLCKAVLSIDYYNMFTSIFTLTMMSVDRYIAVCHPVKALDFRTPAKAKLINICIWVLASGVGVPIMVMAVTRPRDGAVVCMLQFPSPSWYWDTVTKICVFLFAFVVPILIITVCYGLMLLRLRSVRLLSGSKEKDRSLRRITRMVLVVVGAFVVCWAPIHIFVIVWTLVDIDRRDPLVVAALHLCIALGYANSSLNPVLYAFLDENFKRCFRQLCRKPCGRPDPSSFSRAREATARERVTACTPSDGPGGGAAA
Test [3] has as its target T1, Kappa-type opioid receptor. The format is functional. This is another data set of the same source.
Test [4] has as its target T3, Ubiquitin-conjugating enzyme E2 N (Homo sapiens, UniProt P61088).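 Further: Dose-response confirmation in a TR-FRET assay detecting UBC13-driven polyubiquitin chain formation, inhibition measured.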
T3 sequence (P61088 whole entry): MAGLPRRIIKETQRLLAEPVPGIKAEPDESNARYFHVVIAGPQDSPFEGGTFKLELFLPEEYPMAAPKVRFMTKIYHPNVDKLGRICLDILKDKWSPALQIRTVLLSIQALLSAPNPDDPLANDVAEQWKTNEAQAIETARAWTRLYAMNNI
The format is functional.

In another test the target is Beta-galactosidase (Escherichia coli, UniProt Q8VNN2). The class given is functional.
In test [5] the target is T2, Delta-type opioid receptor. The test is described as follows: HTS Image-Based Screen for Agonists of the DOR Receptor. [Related pubchem assays (depositor defined):AID1777, AID1786, AID2133]. The format is functional.
Test [6] addresses T4, Tyrosine-protein phosphatase non-receptor type 22 (Homo sapiens, UniProt Q9Y2R2). The format is functional.
For test [7], the target named is T4, Tyrosine-protein phosphatase non-receptor type 22. The class given is functional. The source holds these as a separate data set.
Test [8] addresses T5, Tyrosine-protein phosphatase non-receptor type 7 (Homo sapiens, UniProt P35236).
T5 sequence (P35236 whole entry): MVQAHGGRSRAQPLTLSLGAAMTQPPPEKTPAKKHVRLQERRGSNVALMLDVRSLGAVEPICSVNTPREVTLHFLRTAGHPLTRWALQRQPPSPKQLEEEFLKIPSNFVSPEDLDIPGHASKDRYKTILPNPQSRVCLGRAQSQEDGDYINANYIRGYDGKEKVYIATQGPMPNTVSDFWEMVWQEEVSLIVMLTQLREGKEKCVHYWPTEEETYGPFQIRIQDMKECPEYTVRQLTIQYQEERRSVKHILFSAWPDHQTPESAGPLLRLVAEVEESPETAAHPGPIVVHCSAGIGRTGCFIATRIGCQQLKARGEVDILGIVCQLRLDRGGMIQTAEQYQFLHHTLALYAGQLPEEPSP
The class given is functional.

In test [9] the target is T6, G-protein coupled receptor 35 (Homo sapiens, UniProt Q9HC97). The test is described as follows: SAR Analysis for the identification of Selective Antagonists of ERK1/2 Activity in GPR35-Overexpressing U2OS Cells. [Related pubchem assays: 2079, 2058 ]. The format is functional, cell-based.
T6 sequence (Q9HC97 whole entry): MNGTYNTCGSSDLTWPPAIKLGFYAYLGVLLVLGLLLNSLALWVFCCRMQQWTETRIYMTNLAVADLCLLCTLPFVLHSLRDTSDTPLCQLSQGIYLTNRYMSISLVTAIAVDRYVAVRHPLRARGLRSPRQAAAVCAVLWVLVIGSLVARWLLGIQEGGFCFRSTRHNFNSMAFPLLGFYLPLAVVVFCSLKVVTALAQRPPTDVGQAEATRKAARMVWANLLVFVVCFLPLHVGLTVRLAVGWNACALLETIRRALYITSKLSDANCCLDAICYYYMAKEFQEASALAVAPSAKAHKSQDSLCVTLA
Test [10] concerns the target T6, G-protein coupled receptor 35. The test is described as follows: inhibition of zaprinast-stimulated GPR35 beta-arrestin translocation – imaging, U2OS, beta-arrestin-GFP, zaprinast agonist, primary screen (AID 2058).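 Further: antagonist potency meaning inhibition of agonist-induced arrestin redistribution.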 The class given is functional.
The target in test [11] is G-protein coupled receptor 55 (Homo sapiens, UniProt Q9Y2T6). In words: blockers of GPR55 signalling, imaged – imaging, image-based, counter-screen for GPR35 antagonist project, SAR follow-up (AID 2397). The class given is functional. Background: A counterscreen serves to expose hits that act by an unwanted route or on another target.
The target in test [12] is Lysine-specific demethylase 4A (Homo sapiens, UniProt O75164). In words: inhibition of JMJD2A H3K9me3 demethylation – biochemical, DELFIA europium, cherry-picked samples, selectivity assay for GASC-1 inhibitor project, dose response (AID 488840).
Sequence of Lysine-specific demethylase 4A (O75164 whole entry): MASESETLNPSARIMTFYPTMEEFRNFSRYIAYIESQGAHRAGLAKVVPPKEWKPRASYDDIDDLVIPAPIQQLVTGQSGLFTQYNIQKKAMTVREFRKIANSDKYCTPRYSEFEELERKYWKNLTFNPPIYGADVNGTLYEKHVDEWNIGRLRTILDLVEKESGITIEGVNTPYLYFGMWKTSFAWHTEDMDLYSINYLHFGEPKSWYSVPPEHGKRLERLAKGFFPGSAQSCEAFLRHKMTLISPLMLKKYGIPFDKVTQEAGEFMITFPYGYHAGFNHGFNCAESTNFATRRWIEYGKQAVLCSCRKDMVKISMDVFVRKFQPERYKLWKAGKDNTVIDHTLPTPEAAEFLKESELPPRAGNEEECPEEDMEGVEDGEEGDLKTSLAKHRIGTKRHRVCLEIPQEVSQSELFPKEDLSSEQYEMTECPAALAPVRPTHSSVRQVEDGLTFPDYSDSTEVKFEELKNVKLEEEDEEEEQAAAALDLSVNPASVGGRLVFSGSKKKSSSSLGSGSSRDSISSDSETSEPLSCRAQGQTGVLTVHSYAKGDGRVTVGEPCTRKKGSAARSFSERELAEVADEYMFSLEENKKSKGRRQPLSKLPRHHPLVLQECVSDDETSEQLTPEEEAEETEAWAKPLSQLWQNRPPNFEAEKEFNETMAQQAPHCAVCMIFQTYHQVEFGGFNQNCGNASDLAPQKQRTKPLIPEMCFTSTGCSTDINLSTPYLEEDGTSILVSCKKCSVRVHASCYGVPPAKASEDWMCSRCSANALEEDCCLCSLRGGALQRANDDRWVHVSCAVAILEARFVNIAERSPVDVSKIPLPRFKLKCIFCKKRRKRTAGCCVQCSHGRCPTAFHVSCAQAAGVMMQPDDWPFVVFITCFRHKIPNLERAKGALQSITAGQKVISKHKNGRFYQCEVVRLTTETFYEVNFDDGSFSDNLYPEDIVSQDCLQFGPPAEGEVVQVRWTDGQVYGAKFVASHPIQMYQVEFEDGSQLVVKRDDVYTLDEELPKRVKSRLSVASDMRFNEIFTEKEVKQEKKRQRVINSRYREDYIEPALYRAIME
Test [13] deals with HEK293. The test is described as follows: cells. The class given is functional, cell-based. The settings on record: Homo sapiens.
Test [14] concerns HEK293. In words: cells. The format is functional, cell-based. Conditions: Homo sapiens. The source holds these as a separate data set.
Test [15] deals with Nucleotide-binding oligomerization domain-containing protein 2 (Homo sapiens, UniProt Q9HC29). The test is described as follows: PubChem AID 2334. The format is functional.
Sequence of Nucleotide-binding oligomerization domain-containing protein 2 (Q9HC29 whole entry, the tested form may be a part): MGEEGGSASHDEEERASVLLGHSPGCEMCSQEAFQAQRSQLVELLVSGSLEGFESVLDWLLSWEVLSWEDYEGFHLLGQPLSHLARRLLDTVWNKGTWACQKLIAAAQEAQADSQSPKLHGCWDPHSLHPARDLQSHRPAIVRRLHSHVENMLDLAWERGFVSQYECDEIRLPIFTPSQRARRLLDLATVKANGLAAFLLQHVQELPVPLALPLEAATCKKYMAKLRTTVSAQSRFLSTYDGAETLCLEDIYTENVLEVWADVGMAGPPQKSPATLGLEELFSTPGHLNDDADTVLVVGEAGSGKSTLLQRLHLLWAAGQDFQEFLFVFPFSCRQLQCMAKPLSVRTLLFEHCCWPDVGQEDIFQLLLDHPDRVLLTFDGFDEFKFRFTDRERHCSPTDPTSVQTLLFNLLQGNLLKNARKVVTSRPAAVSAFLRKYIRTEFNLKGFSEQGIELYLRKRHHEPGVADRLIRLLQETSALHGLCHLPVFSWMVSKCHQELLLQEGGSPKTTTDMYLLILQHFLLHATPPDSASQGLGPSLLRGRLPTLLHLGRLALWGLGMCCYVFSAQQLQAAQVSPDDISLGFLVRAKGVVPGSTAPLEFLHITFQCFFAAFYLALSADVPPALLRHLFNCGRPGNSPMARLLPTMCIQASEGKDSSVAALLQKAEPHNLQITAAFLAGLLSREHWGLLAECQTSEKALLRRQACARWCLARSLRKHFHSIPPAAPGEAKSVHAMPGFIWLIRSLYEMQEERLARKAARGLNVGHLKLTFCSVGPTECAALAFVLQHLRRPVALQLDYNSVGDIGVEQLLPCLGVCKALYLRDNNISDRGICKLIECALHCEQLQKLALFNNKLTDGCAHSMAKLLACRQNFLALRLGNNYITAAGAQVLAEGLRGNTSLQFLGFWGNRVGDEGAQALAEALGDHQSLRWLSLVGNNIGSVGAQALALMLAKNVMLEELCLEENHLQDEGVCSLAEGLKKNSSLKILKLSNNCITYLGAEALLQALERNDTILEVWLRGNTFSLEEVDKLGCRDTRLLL
Test [16] can be described thus: NIH3T3 cell viability loss – ATP luminescence, mouse fibroblasts, counter-screen, dose response (AID 2010).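 Further: cells exposed to compound for about 90 hours before reading.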 The class given is functional, cell-based.
Test [17] can be described thus: Trypanosoma cruzi growth suppression in host cells – NIH3T3 host cells, beta-gal luminescence, confirmation (AID 2044).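 Further: intracellular parasites grown in NIH/3T3 mouse fibroblasts as host cells; luminescent beta-galactosidase reporter signal from transgenic T. cruzi replicating inside host cells; inhibitors lower the luminescence signal.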 The format is functional, cell-based.
A further test addresses Tumor necrosis factor (Homo sapiens, UniProt P01375). In words: analog potency on TNFa NF-kB signaling – cell-based, revised, SAR follow-up (AID 2337). The class given is functional.
For test [18], the system named is HEK293. In words: cells. Conditions: Homo sapiens.
The test system of test [19] is HEK293. In words: inhibition of NOD1-driven NF-kB reporter – cell-based, luminescence, uHTS, primary screen (AID 1578). The class given is functional. Conditions: Homo sapiens.
Test [20] has as its system HEK293. The test is described as follows: NOD2 signaling inhibitors in MDP-stimulated cells, cell-based, uHTS, luminescence (AID 2001). The format is functional. Conditions: Homo sapiens.
Test [21] has as its target Nucleotide-binding oligomerization domain-containing protein 1 (Homo sapiens, UniProt Q9Y239). The test is described as follows: blockers of NOD1 pathway activity – revised, SAR follow-up (AID 2333). The format is functional.

T4 sequence (Q9Y2R2 whole entry): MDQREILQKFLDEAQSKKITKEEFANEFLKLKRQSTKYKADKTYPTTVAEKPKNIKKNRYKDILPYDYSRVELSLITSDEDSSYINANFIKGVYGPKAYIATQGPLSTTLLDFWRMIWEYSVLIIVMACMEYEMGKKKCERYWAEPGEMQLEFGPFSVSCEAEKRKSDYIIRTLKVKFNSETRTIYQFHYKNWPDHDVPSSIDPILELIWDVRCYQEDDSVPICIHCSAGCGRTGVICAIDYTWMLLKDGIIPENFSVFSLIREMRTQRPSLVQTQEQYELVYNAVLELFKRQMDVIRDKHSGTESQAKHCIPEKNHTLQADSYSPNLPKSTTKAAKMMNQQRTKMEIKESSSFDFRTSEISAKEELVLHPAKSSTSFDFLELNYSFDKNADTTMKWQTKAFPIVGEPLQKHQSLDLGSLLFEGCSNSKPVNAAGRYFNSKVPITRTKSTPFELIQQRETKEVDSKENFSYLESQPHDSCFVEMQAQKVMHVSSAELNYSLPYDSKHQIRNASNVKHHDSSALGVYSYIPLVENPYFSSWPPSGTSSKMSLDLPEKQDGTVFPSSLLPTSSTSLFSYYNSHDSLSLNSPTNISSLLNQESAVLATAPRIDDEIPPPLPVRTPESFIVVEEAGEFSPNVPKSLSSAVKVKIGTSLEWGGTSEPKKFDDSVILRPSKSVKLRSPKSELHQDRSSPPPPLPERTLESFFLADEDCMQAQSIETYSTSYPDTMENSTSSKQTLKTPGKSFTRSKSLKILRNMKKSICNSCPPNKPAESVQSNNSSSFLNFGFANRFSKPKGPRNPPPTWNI

`Cc1ccc(C(=O)N[C@@H](C)CN2C3=NC[C@@H](Cc4ccccc4)N3C[C@H]2Cc2ccc(O)cc2)cc1Br`: the half-maximal activity concentration (AC50) at Paired box protein Pax-8 was 24.8 µM (active). The figures for the EC50 (on Mu-type opioid receptor; at Beta-galactosidase; in [5]) were > 32 µM (inactive), > 31.5 µM (inactive) and 31.2 µM (inactive), respectively. Further, the half-maximal inhibitory concentration (IC50) in [1] is 3.16 µM (active); in test [2], > 32 µM (inactive); in test [3], 1.44 µM; in test [4], > 20 µM (inactive).
On to `COc1ccc(N2CCN(CCOc3ccc4c(C)cc(=O)oc4c3)CC2)cc1`, for which the IC50 in test [6], in [7] and in test [8] was > 79.4 µM (inactive) each time.
As to `CC(C)(C)c1ccc(OCCC(=O)NCCc2ccc(S(N)(=O)=O)cc2)cc1`, the IC50 in [9] was 9.95 µM (active); in [10], 0.929 µM (active); in test [11], > 32 µM (inactive).
Turning to `O=C(NN=C1CCCCCCCCCCC1)c1cccc(S(=O)(=O)N2CCOCC2)c1`, in test [12], the AC50 is 18.1 µM (active).
Regarding `COc1ccc(C(=O)NC(=S)N(C)C2CCCCC2)cc1Br`, the IC50 with HEK293 [13] was > 20 µM (inactive); in the test on HEK293 [14] it was > 20 µM (inactive); in test [15] it was > 20 µM (inactive); at Tumor necrosis factor it was > 20 µM (inactive); in the test with HEK293 [18], > 20 µM (inactive); with HEK293 [20] it was 6.75 µM (inactive). Besides, the IC50 in test [21] was > 20 µM (inactive). The figures for the EC50 (in test [16]; in test [17]; with HEK293 [19]) were 12.4 µM (active), 3.6 µM (active) and > 20 µM (inactive), respectively.

One may read the AC50 as the concentration at which the activity in the assay is half-maximal. A word on the EC50: it is the concentration needed to bring the measured effect to its halfway point. As usually defined, the IC50 is the concentration that inhibits the measured activity by half.
